For assay [1], the system named is Giardia intestinalis. The assay can be described thus: Antimicrobial activity against Giardia intestinalis. The assay is classed as functional, organism-based, Giardia duodenalis. The conditions noted are these: for IC50: Giardia duodenalis.
In assay [2] the test system is Trichomonas vaginalis. The assay is described as follows: Antimicrobial activity against Trichomonas vaginalis. Format: functional, organism-based.
Setting [3] is: Trichomonas vaginalis, read-out: pIC50 (converted).
Where [4] appears, read: Trichomonas vaginalis, read-out: IC50.

Structures are written as SMILES.

As usually defined, the pIC50 is the negative decadic logarithm of the IC50, by convention in mol/L. The low end stands for a large IC50, the high end for a small IC50. In turn, `CN(C)CCSc1nc2c(Cl)cc(Cl)cc2[nH]1` registered a negative logarithm of the IC50 (pIC50) in assay [1] of 7.68. Besides, the IC50 in assay [1] (read-out: pIC50 (converted)) is 20.9 nM.

Consider `FC(F)(F)c1nc2cc(Br)ccc2[nH]1`, for which the pIC50 is recorded as 6.19 in assay [1] and 5.8 in assay [2]. Besides, the IC50 is 646 nM in assay [1] (read-out: pIC50 (converted)) and 1580 nM in assay [2] (setting [3]).

Regarding `FC(F)(F)c1nc2c(Br)cc(Br)cc2[nH]1`, the pIC50 in assay [1] is given as 6.6; in assay [2], 6.72. Further, the values for the IC50 in assay [1] (read-out: pIC50 (converted)) and in assay [2] (setting [3]) were 251 nM and 191 nM, respectively.

As to `CCCSc1ccc2[nH]c(C(F)(F)F)nc2c1`, the negative logarithm of the IC50 (pIC50) was 5.82 in assay [1] and 6.46 in assay [2]. For the same compound, the IC50 was 1510 nM in assay [1] (read-out: pIC50 (converted)) and 347 nM in assay [2] (setting [3]).

For `O=C(c1ccccc1)c1ccc2[nH]c(C(F)(F)F)nc2c1`, the values for the negative-log IC50 (pIC50) in assay [1] and in assay [2] were 5.64 and 4.55, respectively. The IC50 in assay [1] (read-out: IC50) was 2310 nM; in assay [1] (read-out: pIC50 (converted)), 2290 nM; in assay [2] (setting [4]), 28400 nM; in assay [2] (setting [3]), 28200 nM.

For `FC(F)(F)c1nc2c(Br)c(Br)c(Br)cc2[nH]1`, the values for the negative-log IC50 (pIC50) in assay [1] and in assay [2] were 6.85 and 6.57, respectively. The IC50 was 141 nM in assay [1] (read-out: pIC50 (converted)), 270 nM in assay [2] (setting [4]), 269 nM in assay [2] (setting [3]) and 270 nM in assay [2] (read-out: IC50).

As to `OCCSc1nc2c(Cl)cc(Cl)cc2[nH]1`, the pIC50 in assay [1] is reported as 7.42; in assay [2] it was 6.16. Further, the results for the IC50 in assay [1] (read-out: pIC50 (converted)) and in assay [2] (setting [3]) were 38 nM and 692 nM, respectively.

With `OCCSc1nc2c(Br)cc(Br)cc2[nH]1`, the negative-log IC50 (pIC50) in assay [1] amounted to 6.98; in assay [2] it was 6.83. Further, the IC50 in assay [1] (read-out: pIC50 (converted)) was 105 nM; in assay [2] (setting [3]), 148 nM.

`CN(C)CCSc1nc2c(Br)cc(Br)cc2[nH]1`: the results for the negative-log IC50 (pIC50) in assay [1] and in assay [2] were 7.54 and 6.51, respectively. In addition, the IC50 is 28.8 nM in assay [1] (read-out: pIC50 (converted)) and 309 nM in assay [2] (setting [3]).

As for `CCN(CC)CCSc1nc2c(Cl)cc(Cl)cc2[nH]1`, the figures for the pIC50 in assay [1] and in assay [2] were 7.72 and 7.39, respectively. Besides, the IC50 is 19.1 nM in assay [1] (read-out: pIC50 (converted)) and 40.7 nM in assay [2] (setting [3]).

For `CCN(CC)CCSc1nc2c(Br)cc(Br)cc2[nH]1`, the pIC50 was determined as 7.46 in assay [1] and 7.53 in assay [2]. Besides, the IC50 in assay [1] (read-out: pIC50 (converted)) was 34.7 nM; in assay [2] (setting [4]), 29 nM; in assay [2] (setting [3]) it was 29.5 nM.

`CN(C)CCCSc1nc2c(Cl)cc(Cl)cc2[nH]1`: the pIC50 amounted to 7.14 in assay [1] and 7.07 in assay [2]. Further, the IC50 in assay [1] (read-out: IC50) is 72 nM; in assay [1] (read-out: pIC50 (converted)), 72.4 nM; in assay [2] (setting [4]), 85 nM; in assay [2] (setting [3]), 85.1 nM.

Consider `CN(C)CCCSc1nc2c(Br)cc(Br)cc2[nH]1`, for which the results for the pIC50 in assay [1] and in assay [2] were 7.69 and 7.99, respectively. In addition, the IC50 in assay [1] (read-out: IC50) was 20 nM; in assay [1] (read-out: pIC50 (converted)), 20.4 nM; in assay [2] (setting [4]), 11 nM; in assay [2] (setting [3]), 10.2 nM.

Regarding `Clc1cc(Cl)c2nc(SCCN3CCCCC3)[nH]c2c1`, the pIC50 was 7.26 in assay [1] and 7.14 in assay [2]. For the same compound, the IC50 in assay [1] (read-out: pIC50 (converted)) was 55 nM; in assay [2] (setting [3]), 72.4 nM.

Turning to `Brc1cc(Br)c2nc(SCCN3CCCCC3)[nH]c2c1`, the results for the negative-log IC50 (pIC50) in assay [1] and in assay [2] were 6.9 and 7.69, respectively. Besides, the IC50 in assay [1] (read-out: pIC50 (converted)) is 126 nM; in assay [2] (setting [3]) it was 20.4 nM.

For `Clc1cc(Cl)c2nc(SCCN3CCOCC3)[nH]c2c1`, the pIC50 in assay [1] was found to be 7.41; in assay [2] it was 7.29. Besides, the IC50 is 38.9 nM in assay [1] (read-out: pIC50 (converted)) and 51.3 nM in assay [2] (setting [3]).

Turning to `Brc1cc(Br)c2nc(SCCN3CCOCC3)[nH]c2c1`, the negative-log IC50 (pIC50) in assay [1] and in assay [2] was 7.23 each time. For the same compound, the IC50 in assay [1] (read-out: pIC50 (converted)) and in assay [2] (setting [3]) was 58.9 nM each time.

Take `O=[N+]([O-])c1ccc(CCSc2nc3c(Cl)cc(Cl)cc3[nH]2)cc1`: the pIC50 is 7.09 in assay [1] and 7.96 in assay [2]. The IC50 in assay [1] (read-out: pIC50 (converted)) was 81.3 nM; in assay [2] (setting [4]), 10 nM; in assay [2] (setting [3]), 11 nM.

For the compound `O=[N+]([O-])c1ccc(CCSc2nc3c(Br)cc(Br)cc3[nH]2)cc1`, the pIC50 in assay [1] came to 7.43; in assay [2] it was 8.48. Also, the results for the IC50 in assay [1] (read-out: pIC50 (converted)), in assay [2] (setting [4]) and in assay [2] (setting [3]) were 37.2 nM, 3 nM and 3.31 nM, respectively.

Values taken from ChEMBL document CHEMBL3217580, “Structureactivity relationships of benzimidazole derivatives as antiparasitic agents: Dual activity-difference (DAD) maps” (Medchemcomm, 2011).
